Laboratory results reported in patent EP4813980A1, “EP300/CBP REGULATOR, AND PREPARATION METHOD THEREFOR AND USE THEREOF” (Miracure Biotechnology Limited, priority 2023, dated 2025).

How the values were obtained:
vCap cells = test: Cell growth inhibition, CellTiter-Glo, 72 h; type: cell-based; details: 72 h culture, mean of N=2
Description: (§1) 22RV1, vCap, MM1S and OPM-2 cells were cultured in RPMI-1640 medium (10% fetal bovine serum and 100 units of penicillin/streptomycin dual-antibody per mL were added to RPMI-1640) in a cell incubator at 37°C with 5% CO2, respectively. Cells in logarithmic growth phase were seeded into 96-well cell culture plates at 5×10^3 cells/100 µL/well and cultured overnight. Active compounds dissolved in DMSO at different concentrations were added with a final concentration of 0.5% DMSO. 1% Tween 20 was used as positive control and 0.5% DMSO was used as negative control. After 72 h of culture, an equal volume of CellTiter-Glo was added to each well, mixed by shaking for 2 min, and left standing at room temperature for 10 min. […] signal values were read with a microplate reader. Data were analyzed and graphs were generated using Prism 7.0. The values shown are mean ± SEM (N=2). […] The formula for inhibition rate is as follows: % Inhibition = (Icompound−IZPE)/(IHPE−IZPE) × 100 [formula]
(§2) The X-axis is compound concentration (nM), and the Y-axis is % Inhibition.

22RV1 cells = test: Cell growth inhibition, CellTiter-Glo, 72 h; type: cell-based; details: 72 h culture, mean of N=2
Description: as §1, §2

With “3-{5-[8-(4-{2-acetyl-7-[7-(difluoromethyl)-6-(1-methylpyrazol-4-yl)-3,4-dihydro-2H-quinolin-1-yl]-1,3-dihydroisoindol-5-yl}piperidin-1-yl)-8-oxo-1-yn-1-yl]-3-methyl-2-oxo-1,3-benzodiazol-1-yl}piperidine-2,6-dione [Compound 2030]” as the compound, how does the IC50 (vCap cells) read?
The IC50 was 0.1 nM.

And the IC50 (22RV1 cells)?
Its IC50 is 0.34 nM.

How did the IC50 (22RV1 cells; Homo sapiens) turn out when `C=CC(=O)N1CCC(c2cc3c(c(N4CCCc5cc(-c6cnn(C)c6)c(C(F)F)cc54)c2)CN(C(=O)NC)CC3)CC1` [Compound 1346, 6-(1-acryloylpiperidin-4-yl)-8-(7-(difluoromethyl)-6-(1-methyl-1H-pyrazol-4-yl)-3,4-dihydroquinolin-1(2H)-yl)-N-methyl-3,4-dihydroisoquinoline-2(1H)-carboxamide] was run?
Its IC50 is 81800 nM.

`C=CS(=O)(=O)N[C@H]1CC[C@H](n2c([C@@H]3CCCC(=O)N3c3ccc(F)c(F)c3)nc3cc(-c4c(C)noc4C)ccc32)CC1` [Compound 1370] was tested. Which IC50 (22RV1 cells; Homo sapiens) did it give?
The IC50 was 1610 nM.

How did the IC50 (22RV1 cells) turn out when `C=CC(=O)NC1CCC(n2c([C@@H]3CCCC(=O)N3c3ccc(F)c(F)c3)nc3cc(-c4c(C)noc4C)ccc32)CC1` (some centres unmarked) [Compound 1371] was run?
The IC50 was 2090 nM.

How did the IC50 (22RV1 cells; Homo sapiens) turn out when `CC#CC(=O)N1CCC(n2nc(N3CCCc4cc(-c5cnn(C)c5)c(C(F)F)cc43)c3c2CCN(C(=O)NC)C3)CC1` [Compound 1376] was run?
Its IC50 is 2650 nM.

Which results are given for `CC(=O)N1Cc2cc(C3CCC(N4C(=O)C=CC4=O)CC3)cc(N3CCCc4cc(-c5cnn(C)c5)c(C(F)F)cc43)c2C1` (centres unmarked) [Compound 1385, 1-(4-{2-acetyl-7-[7-(difluoromethyl)-6-(1-methylpyrazol-4-yl)-3,4-dihydro-2H-quinolin-1-yl]-1,3-dihydroisoindol-5-yl}cyclohexyl)pyrrole-2,5-dione]?
IC50 (vCap cells; Homo sapiens): 144 nM; IC50 (22RV1 cells; Homo sapiens): 358 nM

`CC(=O)N1Cc2cc(C3CCN(CCN4CCOC(CNc5cccc6c5C(=O)N(C5CCC(=O)NC5=O)C6=O)C4)CC3)cc(N3CCCc4cc(-c5cnn(C)c5)c(C(F)F)cc43)c2C1` (centres unmarked) [Compound 2001] was tested. Which IC50 (vCap cells; Homo sapiens) did it give?
Its IC50 is 0.154 nM.

And the IC50 (22RV1 cells; Homo sapiens)?
Its IC50 is 0.06 nM.

`CC(=O)N1Cc2cc(C3CCN(Cc4ccc(CCOc5cccc6c5CN(C5CCC(=O)NC5=O)C6=O)cc4)CC3)cc(N3CCCc4cc(-c5cnn(C)c5)c(C(F)F)cc43)c2C1` (centres unmarked) [Compound 2003] was tested. Which IC50 (vCap cells; Homo sapiens) did it give?
The IC50 was 0.19 nM.

What about the IC50 (22RV1 cells; Homo sapiens) of the same compound?
Its IC50 is 0.69 nM.

With `CC(=O)n1cc2cc(C3CCN(C(=O)CCCCCCCNc4ccc5c(c4)n(C)c(=O)n5C4CCC(=O)NC4=O)CC3)cc(N3CCCc4cc(-c5cnn(C)c5)c(C(F)F)cc43)c2c1` (centres unmarked) [Compound 2004, 3-[5-[[8-[4-[2-acetyl-7-[7-(difluoromethyl)-6-(1-methylpyrazol-4-yl)-3,4-dihydro-2H-quinolin-1-yl]isoindol-5-yl]piperidin-1-yl]-8-oxooctyl]amino]-3-methyl-2-oxobenzoimidazol-1-yl]piperidine-2,6-dione] as the compound, how does the IC50 (vCap cells; Homo sapiens) read?
The IC50 was 0.12 nM.

What about the IC50 (22RV1 cells; Homo sapiens) of the same compound?
The IC50 was 0.03 nM.

Which IC50 (22RV1 cells; Homo sapiens) does the source give for `CC(=O)N1Cc2cc(C3CCN(CCN4CCC(CCc5cccc6c5C(=O)N(C5CCC(=O)NC5=O)C6=O)CC4)CC3)cc(N3CCCc4cc(-c5cnn(C)c5)c(C(F)F)cc43)c2C1` (centres unmarked) [Compound 2005] here?
Its IC50 is 7.7 nM.

`CC(=O)N1Cc2cc(C3CCN(C(=O)CCCCCCNc4cccc5c4n(C)c(=O)n5C4CCC(=O)NC4=O)CC3)cc(N3CCCc4cc(-c5cnn(C)c5)c(C(F)F)cc43)c2C1` (centres unmarked) [Compound 2007] was tested. Which IC50 (vCap cells; Homo sapiens) did it give?
Its IC50 is 0.01 nM.

And the IC50 (22RV1 cells; Homo sapiens)?
Its IC50 is 0.04 nM.

How did the IC50 (vCap cells; Homo sapiens) turn out when `CNC(=O)N1CCc2cc(C3CCN(CCN4CCC(CCc5cccc6c5C(=O)N(C5CCC(=O)NC5=O)C6=O)CC4)CC3)cc(N3CCCc4cc(-c5cnn(C)c5)c(C(F)F)cc43)c2C1` (centres unmarked) [Compound 2014, 8-(7-(difluoromethyl)-6-(1-methylpyrazol-4-yl)-3,4-dihydro-2H-quinolin-1-yl)-6-[1-[2-[4-[2-[2-(2,6-dioxo-3-piperidinyl)-1,3-dioxoisoindolin-4-yl]ethyl]-1-piperidinyl]ethyl]-4-piperidinyl]-N-methyl-3,4-dihydro-1H-isoquinoline-2-carboxamide] was run?
The IC50 was 11 nM.

With `CNC(=O)N1Cc2cc(C3CCN(C(=O)CCOCCOCCOCCOCCNc4ccc5c(c4)C(=O)N(C4CCC(=O)NC4=O)C5=O)CC3)cc(N3CCCc4cc(-c5cnn(C)c5)c(C(F)F)cc43)c2C1` (centres unmarked) [Compound 2023] as the compound, how does the IC50 (22RV1 cells; Homo sapiens) read?
The IC50 was 434 nM.

With `COC(=O)N1CCc2cc(C3CCN(C(=O)CCCCCCCNc4ccc5c(c4)C(=O)N(C4CCC(=O)NC4=O)C5=O)CC3)cc(N3CCCc4cc(-c5cnn(C)c5)c(C(F)F)cc43)c2C1` (centres unmarked) [Compound 2026, methyl 8-[7-(difluoromethyl)-6-(1-methylpyrazol-4-yl)-3,4-dihydro-2H-quinolin-1-yl]-6-[1-[8-[[2-(2,6-dioxo-3-piperidinyl)-1,3-dioxoisoindolin-5-yl]amino]octanoyl]-4-piperidinyl]-3,4-dihydro-1H-isoquinoline-2-carboxylate] as the compound, how does the IC50 (22RV1 cells; Homo sapiens) read?
The IC50 was 22.4 nM.

`CC(=O)N1Cc2cc(C3CCN(Cc4ccc(CCOc5cccc6c5CN(C5CCC(=O)NC5=O)C6=O)nc4)CC3)cc(N3CCCc4cc(-c5cnn(C)c5)c(C(F)F)cc43)c2C1` (centres unmarked) [Compound 2035, 3-[4-(2-{5-[(4-{2-acetyl-7-[7-(difluoromethyl)-6-(1-methylpyrazol-4-yl)-3,4-dihydro-2H-quinolin-1-yl]-1,3-dihydroisoindol-5-yl}piperidin-1-yl)methyl]pyridin-2-yl}ethoxy)-1-oxo-3H-isoindol-2-yl]piperidine-2,6-dione] was tested. Which IC50 (22RV1 cells; Homo sapiens) did it give?
The IC50 was 2.6 nM.

Which IC50 (22RV1 cells; Homo sapiens) does the source give for `CC(=O)N1Cc2cc(C3CCN(C(=O)Cn4cc(COc5cccc6c5CN(C5CCC(=O)NC5=O)C6=O)nn4)CC3)cc(N3CCCc4cc(-c5cnn(C)c5)c(C(F)F)cc43)c2C1` (centres unmarked) [Compound 2046] here?
The IC50 was 14 nM.

Which IC50 (22RV1 cells; Homo sapiens) does the source give for `CC(=O)N1Cc2cc(C3CCN(CC4CCN(c5cccc6c5CN(C5CCC(=O)NC5=O)C6=O)CC4)CC3)cc(N3CCCc4cc(-c5cnn(C)c5)c(C(F)F)cc43)c2C1` (centres unmarked) [Compound 2047] here?
Its IC50 is > 10000 nM.

For `CC(=O)N1Cc2cc(C3CCN(C(=O)CN4Cc5cc6c(cc5C4)C(=O)N(C4CCC(=O)NC4=O)C6=O)CC3)cc(N3CCCc4cc(-c5cnn(C)c5)c(C(F)F)cc43)c2C1` (centres unmarked) [Compound 2050], which IC50 (22RV1 cells; Homo sapiens) is on record?
Its IC50 is 5.25 nM.

How did the IC50 (22RV1 cells; Homo sapiens) turn out when `CC(=O)N1Cc2cc(C3CCN(CCN4Cc5cc6c(cc5C4)C(=O)N(C4CCC(=O)NC4=O)C6=O)CC3)cc(N3CCCc4cc(-c5cnn(C)c5)c(C(F)F)cc43)c2C1` (centres unmarked) [Compound 2059] was run?
The IC50 was 9.42 nM.

For `CC(=O)N1Cc2cc(C3CCN(CC4CCN(CCNc5cccc6c5CN(C5CCC(=O)NC5=O)C6=O)CC4)CC3)cc(N3CCCc4cc(-c5cnn(C)c5)c(C(F)F)cc43)c2C1` (centres unmarked) [Compound 2060], which IC50 (22RV1 cells; Homo sapiens) is on record?
The IC50 was 6.8 nM.

How did the IC50 (22RV1 cells; Homo sapiens) turn out when `CC(=O)N1Cc2cc(C3CCN(CCN4CCC(CNc5cccc6c5CN(C5CCC(=O)NC5=O)C6=O)CC4)CC3)cc(N3CCCc4cc(-c5cnn(C)c5)c(C(F)F)cc43)c2C1` (centres unmarked) [Compound 2061] was run?
Its IC50 is 3.48 nM.

`CC(=O)N1Cc2cc(C3CCN(CC4CCN(CCOc5ccc(N6CCC(=O)NC6=O)cc5)CC4)CC3)cc(N3CCCc4cc(-c5cnn(C)c5)c(C(F)F)cc43)c2C1` [Compound 2072] was tested. Which IC50 (22RV1 cells; Homo sapiens) did it give?
Its IC50 is 2020 nM.

With `CC(=O)N1Cc2cc(C3CCC(N(C)C4CCN(c5ccc6c(c5)CN(C5CCC(=O)NC5=O)C6=O)CC4)CC3)cc(N3CCCc4cc(-c5cnn(C)c5)c(C(F)F)cc43)c2C1` (centres unmarked) [Compound 2079, 3-(5-((4-((2-acetyl-7-(7-(difluoromethyl)-6-(1-methyl-1H-pyrazol-4-yl)-3,4-dihydroquinolin-1(2H)-yl)isoindolin-5-yl)cyclohexyl)(methyl)amino)piperidin-1-yl)-1-oxoisoindolin-2-yl)piperidine-2,6-dione] as the compound, how does the IC50 (22RV1 cells; Homo sapiens) read?
The IC50 was 3.76 nM.
